In data set [1] the test system is fresh whole blood. Description: Whole blood thromboelastometry (ROTEM), clotting initiated with dilute thromboplastin. The class given is biochemical, human. As for the experimental part: Thromboelastography was carried out using the ROTEM® four channel system (Pentapharm, Munich, Germany) using the supplied software package. Fresh, non-anticoagulated whole blood was collected via atraumatic venipuncture using a two-syringe technique. The initial 3 ml of blood was discarded and the blood sample to be used was then drawn into a 3 ml plain plastic syringe. The blood was immediately transferred to the supplied disposable plastic cups (280 μL per cup) and thoroughly mixed with 20 μL buffer (TBS: 50 mM Tris-HCl pH 7.4, 150 mM NaCl, 0.02% NaN3) or additives in TBS. Each fresh whole blood sample was divided into 4 cups containing the following: TBS only (control), polyP75, anticoagulant drug only, or both polyP75 and anticoagulant drug. Clotting was then initiated immediately via addition of 20 μL of tissue factor containing clotting reagent (INNOVIN® diluted in TBS). Thromboelastography measurement was initiated within 120 seconds of blood drawing for all samples. The final concentrations in the reaction were 87.5% whole blood, INNOVIN® diluted 1:17,000, 0 or 100 μM polyP, 0 or added anticoagulant drug (0.1 U/mL unfractionated heparin or 2.7 μg/mL enoxaparin or 1 μg/mL argatroban, or 0.2 μg/mL rivaroxaban). The measurements were continued for 2 hours and the clot time (CT), clot formation time (CFT), alpha angle (α angle), and maximum clot firmness (MCF) were recorded as supplied by the ROTEM® software. Each anticoagulant drug was added in vitro to whole blood from 5 different individuals.
(§1) Statistical analyses were performed using SigmaStat statistical software version 2.03 (SPSS, Inc). In all cases, two-tailed t-tests were conducted at the 0.05 level of significance. Clot times obtained using the Dilute PT Test with and without added polyP in plasma-based experiments were compared using unpaired t-tests. Results for each variable obtained from the ROTEM® experiments (CT, CFT, a angle, MCF) were compared separately. For each group of anticoagulants, parameters obtained for control blood samples were compared to those for blood+polyP, blood+anticoagulant, and blood+anticoagulant+polyP. The latter two samples were also directly compared. To account for inter-individual variation, thromboelstography parameters were compared using paired t-tests.

Data set [2] concerns the target factor V (Homo sapiens, UniProt P12259). Description: Studies with purified proteins: activation of factor V. The class given is biochemical.
Data set [3] has as its target T1, fibrinogen (Homo sapiens, UniProt P02671+P02675+P02679).
T1 sequence (P02671 20-644 isoform P02671-2 limits assumed): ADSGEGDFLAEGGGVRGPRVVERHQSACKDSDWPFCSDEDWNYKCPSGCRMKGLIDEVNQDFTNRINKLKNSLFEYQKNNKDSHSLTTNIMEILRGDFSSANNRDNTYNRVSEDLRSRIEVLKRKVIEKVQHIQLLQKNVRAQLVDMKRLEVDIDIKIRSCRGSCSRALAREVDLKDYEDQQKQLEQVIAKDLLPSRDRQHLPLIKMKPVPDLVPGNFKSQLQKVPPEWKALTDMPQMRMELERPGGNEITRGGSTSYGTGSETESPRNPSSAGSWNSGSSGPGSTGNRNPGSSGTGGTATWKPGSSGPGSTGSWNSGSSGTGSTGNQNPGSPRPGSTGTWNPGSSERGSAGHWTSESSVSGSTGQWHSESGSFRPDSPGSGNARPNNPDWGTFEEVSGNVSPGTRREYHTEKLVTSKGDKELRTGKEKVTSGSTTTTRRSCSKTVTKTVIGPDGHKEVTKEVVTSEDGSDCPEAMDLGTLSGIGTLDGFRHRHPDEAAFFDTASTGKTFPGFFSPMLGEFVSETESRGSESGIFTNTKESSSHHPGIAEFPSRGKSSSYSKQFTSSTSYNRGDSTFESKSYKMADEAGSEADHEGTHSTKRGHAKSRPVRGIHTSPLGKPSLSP
T1 sequence (P02675 31-491): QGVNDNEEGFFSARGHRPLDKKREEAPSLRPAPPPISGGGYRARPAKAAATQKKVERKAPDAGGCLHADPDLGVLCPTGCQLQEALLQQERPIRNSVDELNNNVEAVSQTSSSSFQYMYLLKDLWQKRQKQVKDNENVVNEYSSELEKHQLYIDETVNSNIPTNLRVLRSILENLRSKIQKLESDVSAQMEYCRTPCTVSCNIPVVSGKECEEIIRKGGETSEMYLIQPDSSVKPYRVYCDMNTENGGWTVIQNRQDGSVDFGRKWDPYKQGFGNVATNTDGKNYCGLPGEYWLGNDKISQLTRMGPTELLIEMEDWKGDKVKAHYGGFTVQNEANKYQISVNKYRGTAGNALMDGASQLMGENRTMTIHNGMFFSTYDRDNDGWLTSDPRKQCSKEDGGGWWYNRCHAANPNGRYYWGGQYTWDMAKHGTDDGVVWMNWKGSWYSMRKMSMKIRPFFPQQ
T1 sequence (P02679 27-437 isoform P02679-2 limits assumed): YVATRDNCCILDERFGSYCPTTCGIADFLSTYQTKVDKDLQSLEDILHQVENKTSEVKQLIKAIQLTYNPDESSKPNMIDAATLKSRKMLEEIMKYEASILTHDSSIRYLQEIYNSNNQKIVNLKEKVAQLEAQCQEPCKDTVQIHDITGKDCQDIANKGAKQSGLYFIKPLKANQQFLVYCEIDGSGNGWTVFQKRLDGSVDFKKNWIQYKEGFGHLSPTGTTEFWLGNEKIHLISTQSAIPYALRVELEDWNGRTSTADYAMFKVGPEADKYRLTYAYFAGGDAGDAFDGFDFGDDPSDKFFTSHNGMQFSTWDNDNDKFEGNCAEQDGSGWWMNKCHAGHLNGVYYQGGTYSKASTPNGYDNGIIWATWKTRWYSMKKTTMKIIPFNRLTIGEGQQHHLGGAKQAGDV
Description: Clot structure of thrombin cleaved fibrinogen. The class given is biochemical.

Data set [4] concerns plasma from patients with hemophilia B (FIX<1%). Nature of the data set: Dilute PT Test, plasma clot time, hemophilia B patients. The class given is biochemical, human. The procedure:
(§2) The following describes the use of the Dilute PT Test to evaluate the effectiveness of polyP in treat hemophilia and reversing the effects of anticoagulant drugs. Anticoagulant drugs were added to pooled normal plasma in vitro at concentrations of up 1 U/mL for unfractionated heparin, 100 μg/mL for enoxaparin, 3 μg/mL for argatroban, and 1 μg/mL for rivaroxaban. Plasma from a patient deficient in FVIII was evaluated with and without the addition of up to 0.5 μg/mL FVIII or 20 nM FVIIa. Plasma from a patient deficient in FIX was evaluated with and without the addition of up to 4 μg/mL FIX or 20 nM FVIIa. INR values for samples from patients receiving COUMADIN® ranged from 1.7 to 4.8.
(§3) Plasma clots were formed in 96-well medium binding polystyrene microplates (Corning Inc., Corning, N.Y.). Plasma (80 μL) was added to the well and clotting was initiated by addition of 160 uL of clotting reagent. The clotting reagent consisted of RecombiPlasTin (as a source of tissue factor) diluted 200 fold (for normal and anticoagulated plasmas) or 8000 fold (for hemophilia plasmas) into buffer containing 100 μM phospholipid vesicles (20% phosphatidylserine and 80% phosphatidylcholine made by sonication), 12.5 mM CaCl2, 25 mM Tris HCl pH 7.4, 0.1% bovine serum albumin, and 150 mM NaCl. Clotting reagent was divided into reagent without added polyP and reagent with added 100 μM polyP75.
(§4) Clotting was evaluated by monitoring the change in turbidity (A405) for 1 hour at room temperature using Softmax software and a Spectramax microplate reader (Molecular Devices Corporation, Sunnyvale, Calif.). […] All assays were repeated 5 times.
as §1

The target of data set [5] is thrombin (Homo sapiens, UniProt P00734). Nature of the data set: Studies with purified proteins: inactivation of thrombin by antithrombin. The class given is biochemical.
Data set [6] concerns plasma from patients receiving COUMADIN®. Description: Dilute PT Test, plasma clot time, patients receiving COUMADIN
The class given is biochemical, human. The conditions noted are these: 7 patients, INR 1.7 to 4.8; polyP75 added in vitro. As for the experimental part: as §2
Plasma clots were formed in 96-well medium binding polystyrene microplates (Corning Inc., Corning, N.Y.). Plasma (80 μL) was added to the well and clotting was initiated by addition of 160 uL of clotting reagent. […]
Clotting was evaluated by monitoring the change in turbidity (A405) for 1 hour at room temperature using Softmax software and a Spectramax microplate reader (Molecular Devices Corporation, Sunnyvale, Calif.). […]

Data set [7] deals with pooled normal plasma. Nature of the data set: Dilute PT Test, plasma clot time, anticoagulants added in vitro. The class given is biochemical, human. The procedure:
as §2, §3, §4, §1

The test system of data set [8] is plasma from patients with hemophilia A (FVIII<1%). Description: Dilute PT Test, plasma clot time, hemophilia A patients. The class given is biochemical, human. The procedure:
as §2, §3, §4, §1

The conditions of data set [9]: cited from earlier work.
The mark [10] stands for this setting: +100 μM polyP, no anticoagulant, blood samples of the argatroban series.
Setting [11] is: +100 μM polyP, no anticoagulant, blood samples of the enoxaparin series.
[12] abbreviates: +100 μM polyP, no anticoagulant, blood samples of the rivaroxaban series.
[13] abbreviates: +100 μM polyP, no anticoagulant, blood samples of the unfractionated heparin series.
Where [14] appears, read: +Anticoagulant + polyP: 0.2 μg/mL rivaroxaban + 100 μM polyP.
The mark [15] stands for this setting: +Anticoagulant + polyP: 1 μg/mL argatroban + 100 μM polyP.
The mark [16] stands for this setting: +Anticoagulant + polyP: 2.7 μg/mL enoxaparin + 100 μM polyP.
[17] abbreviates: +Anticoagulant + polyP: 0.1 U/mL unfractionated heparin + 100 μM polyP.
[18] abbreviates: +Anticoagulant alone (0.1 U/mL unfractionated heparin, 2.7 μg/mL enoxaparin, 1 μg/mL argatroban or 0.2 μg/mL rivaroxaban).

Chain of factor V (P12259 29-2224): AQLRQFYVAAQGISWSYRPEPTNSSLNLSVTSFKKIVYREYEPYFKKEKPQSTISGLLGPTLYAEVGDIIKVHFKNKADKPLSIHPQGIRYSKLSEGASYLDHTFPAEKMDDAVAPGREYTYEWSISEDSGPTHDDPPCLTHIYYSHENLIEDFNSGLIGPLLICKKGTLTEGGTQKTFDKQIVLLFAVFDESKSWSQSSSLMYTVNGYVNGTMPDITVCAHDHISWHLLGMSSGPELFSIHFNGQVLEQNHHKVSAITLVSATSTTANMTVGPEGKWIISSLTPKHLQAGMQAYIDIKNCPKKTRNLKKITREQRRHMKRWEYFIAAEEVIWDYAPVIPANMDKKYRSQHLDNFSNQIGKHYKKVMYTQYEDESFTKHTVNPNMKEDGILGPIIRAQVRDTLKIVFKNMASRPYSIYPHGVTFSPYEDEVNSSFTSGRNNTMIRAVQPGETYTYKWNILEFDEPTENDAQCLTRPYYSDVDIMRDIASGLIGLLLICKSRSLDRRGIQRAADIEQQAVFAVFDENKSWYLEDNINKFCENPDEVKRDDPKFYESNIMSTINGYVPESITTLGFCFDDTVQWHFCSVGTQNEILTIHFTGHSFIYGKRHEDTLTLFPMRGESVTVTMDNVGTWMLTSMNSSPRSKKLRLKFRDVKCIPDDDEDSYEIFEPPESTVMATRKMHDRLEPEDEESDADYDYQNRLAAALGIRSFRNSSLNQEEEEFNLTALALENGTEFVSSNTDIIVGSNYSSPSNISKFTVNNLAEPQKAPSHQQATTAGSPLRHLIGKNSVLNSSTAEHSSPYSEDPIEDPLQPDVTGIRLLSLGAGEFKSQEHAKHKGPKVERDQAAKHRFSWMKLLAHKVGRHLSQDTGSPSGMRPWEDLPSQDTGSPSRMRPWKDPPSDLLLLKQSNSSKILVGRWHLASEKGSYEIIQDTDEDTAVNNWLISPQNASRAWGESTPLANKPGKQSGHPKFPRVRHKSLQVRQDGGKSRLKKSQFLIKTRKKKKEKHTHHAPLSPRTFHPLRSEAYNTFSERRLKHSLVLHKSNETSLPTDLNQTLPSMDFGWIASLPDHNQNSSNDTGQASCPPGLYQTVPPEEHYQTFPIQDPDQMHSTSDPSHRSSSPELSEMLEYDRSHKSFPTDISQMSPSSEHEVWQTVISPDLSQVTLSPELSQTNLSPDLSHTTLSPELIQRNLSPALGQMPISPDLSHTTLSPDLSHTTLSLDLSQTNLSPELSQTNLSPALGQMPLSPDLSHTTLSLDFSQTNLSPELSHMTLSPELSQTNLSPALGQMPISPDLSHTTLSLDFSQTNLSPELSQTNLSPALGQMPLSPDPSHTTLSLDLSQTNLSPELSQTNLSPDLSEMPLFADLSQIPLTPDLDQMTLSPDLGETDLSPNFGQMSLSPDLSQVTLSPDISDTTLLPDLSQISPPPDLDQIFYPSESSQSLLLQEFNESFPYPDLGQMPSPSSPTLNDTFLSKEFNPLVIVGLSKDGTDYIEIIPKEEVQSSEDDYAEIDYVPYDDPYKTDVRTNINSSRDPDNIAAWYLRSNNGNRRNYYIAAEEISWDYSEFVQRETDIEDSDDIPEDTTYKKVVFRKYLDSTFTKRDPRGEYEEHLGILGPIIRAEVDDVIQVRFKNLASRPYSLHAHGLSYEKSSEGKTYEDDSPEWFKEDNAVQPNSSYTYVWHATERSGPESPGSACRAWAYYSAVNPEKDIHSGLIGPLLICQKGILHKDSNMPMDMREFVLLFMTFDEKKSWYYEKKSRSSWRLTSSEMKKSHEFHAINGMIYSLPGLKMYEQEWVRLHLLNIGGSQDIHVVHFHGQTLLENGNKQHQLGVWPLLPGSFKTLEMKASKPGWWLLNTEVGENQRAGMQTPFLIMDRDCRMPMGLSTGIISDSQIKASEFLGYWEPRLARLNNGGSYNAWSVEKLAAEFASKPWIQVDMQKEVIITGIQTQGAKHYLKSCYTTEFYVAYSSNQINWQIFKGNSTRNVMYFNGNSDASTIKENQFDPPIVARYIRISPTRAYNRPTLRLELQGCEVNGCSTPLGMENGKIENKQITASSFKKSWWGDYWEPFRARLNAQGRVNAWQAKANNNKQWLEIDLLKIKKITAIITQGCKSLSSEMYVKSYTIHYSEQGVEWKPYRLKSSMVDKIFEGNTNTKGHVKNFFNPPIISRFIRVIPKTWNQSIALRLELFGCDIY

Take Polyphosphate: the MCF amounted to 62.2 mm in [1] (setting [10]); 64.8 mm in [1] (setting [11]); 64.0 mm in [1] (setting [12]); 63.0 mm in data set [1] (setting [13]); 63.6 mm in [1] (setting [14]); 59.4 mm in data set [1] (setting [15]). Also, the MCF in data set [1] (setting [16]) turned out to be 59.8 mm; in [1] (setting [17]), 52.4 mm. In addition, the α angle in data set [1] (setting [10]) stood at 69.0 °; in data set [1] (setting [11]), 71.0 °; in [1] (setting [12]), 70.0 °; in [1] (setting [13]), 69.6 °; in data set [1] (setting [14]), 67.4 °; in data set [1] (setting [15]) it was 56.4 °. In addition, the results for the α angle in [1] (setting [16]) and in data set [1] (setting [17]) were 60.4 ° and 46.8 °, respectively. The “effect of polyP on CT, in words” value in data set [1] (blood containing argatroban) is listed as “shortened but did not entirely normalize”; in data set [1] (blood containing unfractionated heparin) it was “shortened, but did not completely normalize”. Also, in data set [1] (blood containing enoxaparin), the “effect of polyP on thromboelastography parameters, in words” value is “normalized all parameters”. Moreover, the “effect of polyP on thromboelastography curve, in words” value in data set [1] (blood containing rivaroxaban) is recorded as “complete reversal of anticoagulation”. For the same compound, the “effect on activation of factor V by thrombin or factor Xa” value in data set [2] is “accelerate the activation of factor V”. The “effect on fibrin clot structure” value in data set [3] is listed as “thicker fibrin fibers that are more resistant to fibrinolysis”. Also, the “effect on plasma clot time” value in data set [4] (4 patients with severe hemophilia B, polyP75 added in vitro) is “decreased the plasma clot time”; in data set [6] it was “shortened, but did not completely normalize”; in data set [8] (5 patients with severe hemophilia A, polyP75 added in vitro), “decreased the plasma clot time”. In addition, the “shortening of plasma clot time compared with factor replacement” value in data set [4] (FIX deficiency, polyP alone vs FIX restored to normal plasma concentration) was “greater degree than did restoring the missing clotting factor”; in [8] (FVIII deficiency, polyP alone vs FVIII restored to normal plasma concentration), “greater degree than did restoring the missing clotting factor”. Also, the “procoagulant effect in combination with rFVIIa” value is on record as “additive” in [4] (FIX-deficient plasma, all rFVIIa concentrations evaluated) and “additive” in [8] (FVIII-deficient plasma, all rFVIIa concentrations evaluated). Also, the “rFVIIa concentration giving similar shortening of plasma clot time” value was ~6 nM in data set [4] (FIX-deficient plasma, polyP alone) and ~15 nM in data set [8] (FVIII-deficient plasma, polyP alone). For the same compound, the “clotting of patient plasma with polyP compared with pooled normal plasma” value in data set [4] (severe hemophilia B plasma in the presence of polyP) and in data set [8] (severe hemophilia A plasma in the presence of polyP) was “clotted more rapidly than did pooled normal plasma without polyP” each time. In [5], the “effect on ability of antithrombin to inactivate thrombin” value is reported as “neither enhanced nor blocked”. In addition, the “effect on ability of heparin to accelerate inactivation of thrombin by antithrombin” value in [5] is listed as “did not enhance or block”. Moreover, the “reversal of the effective dose of heparins” value in data set [7] (both types of heparin, decreased slope of the dose-response curve, 67 μM polyP75) is on record as “approximately 50%”. Also, the “shortening of clot time by polyP” value is on record as “approximately 50%” in [7] (plasma with low molecular weight heparin (enoxaparin), all concentrations evaluated (20-100 μg/mL), 67 μM polyP75); “approximately 80%” in [7] (plasma with rivaroxaban, all concentrations tested (0.2-1 μg/mL), 67 μM polyP75); “approximately 50%” in [7] (plasma with unfractionated heparin, all concentrations evaluated (0.2-1 U/mL), 67 μM polyP75). The “argatroban level giving equivalent prolongation of clot time” value in data set [7] (plasma with supratherapeutic argatroban (1-3 μg/ml) + polyP) is listed as “less than 0.5 μg/ml”. Also, in data set [7] (unfractionated heparin, enoxaparin, argatroban, rivaroxaban, 67 μM polyP75), the “effect on anticoagulant effect of drugs added in vitro to normal plasma” value is listed as “antagonized the anticoagulant effect of all four drugs”.

Regarding `O=C(NC[C@H]1CN(c2ccc(N3CCOCC3=O)cc2)C(=O)O1)c1ccc(Cl)s1` [Rivaroxaban, reference compound], in [1] (setting [18]), the MCF is on record as 54.8 mm and the α angle is recorded as 47.6 °. Further, the plasma half-life in data set [9] (in a patient) is 7 to 10 h.

Turning to `CC1CNc2c(cccc2S(=O)(=O)N[C@@H](CCCNC(=N)N)C(=O)N2CC[C@@H](C)C[C@@H]2C(=O)O)C1` (some centres unmarked) [Argatroban, reference compound], in [1] (setting [18]), the MCF stood at 49.4 mm and the α angle amounted to 38.8 °. In addition, in data set [9] (human, in vivo), the therapeutic plasma concentration entry is recorded as “about 1 μg/ml”.

The values above are taken from patent US9241958B2, “Anticoagulant antagonist and hemophilia procoagulant” (The Board of Trustees of the University of Illinois, priority 2007, dated 2016).
